Experimental data as given in paper PMC10578352, “Identification of a Protein Arginine Methyltransferase 7 (PRMT7)/Protein Arginine Methyltransferase 9 (PRMT9) Inhibitor” (Journal of Medicinal Chemistry, 2023).

Experiments:
PRMT7 = target: T1, PRMT7 (Homo sapiens, UniProt Q9NVM4); parameters: method as in PMID 35482954; conditions: heatmap of Figure 2; cited from earlier work
T1 construct: PRMT7 (residues 2–692, C-terminus); with an N-terminal His-tag; His (N); purchased Reaction Biology Corporation
T1 sequence (Q9NVM4 2-692): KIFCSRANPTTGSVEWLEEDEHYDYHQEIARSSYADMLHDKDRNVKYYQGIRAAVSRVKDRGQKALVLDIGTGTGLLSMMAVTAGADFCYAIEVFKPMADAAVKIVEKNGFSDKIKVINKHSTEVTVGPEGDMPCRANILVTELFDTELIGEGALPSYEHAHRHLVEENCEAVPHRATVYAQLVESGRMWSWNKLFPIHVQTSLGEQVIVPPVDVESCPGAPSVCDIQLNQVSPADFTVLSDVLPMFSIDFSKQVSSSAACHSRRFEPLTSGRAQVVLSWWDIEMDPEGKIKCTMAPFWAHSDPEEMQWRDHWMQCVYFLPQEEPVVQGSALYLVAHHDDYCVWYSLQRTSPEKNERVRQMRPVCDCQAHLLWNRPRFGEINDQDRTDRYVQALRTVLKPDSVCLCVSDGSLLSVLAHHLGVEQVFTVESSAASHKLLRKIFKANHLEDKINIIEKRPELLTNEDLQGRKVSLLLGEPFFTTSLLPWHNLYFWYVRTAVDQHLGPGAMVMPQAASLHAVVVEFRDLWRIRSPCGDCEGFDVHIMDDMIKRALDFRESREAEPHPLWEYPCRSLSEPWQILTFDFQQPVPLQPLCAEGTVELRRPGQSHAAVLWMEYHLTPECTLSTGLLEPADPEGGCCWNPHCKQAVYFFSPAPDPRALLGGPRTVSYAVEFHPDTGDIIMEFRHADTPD

human recombinant PRMT9 = target: T2, human recombinant PRMT9 (Homo sapiens, UniProt Q6P2P2); test: SPR binding to immobilized PRMT9; conditions: 1:1 Langmuir model, 25 °C
T2 construct: human recombinant PRMT9 (2–845; N-terminal FLAG-tag, C-terminal His6-tag); FLAG (N); His6 (C); purchased BPS BioScience 79124
T2 sequence (Q6P2P2 2-845): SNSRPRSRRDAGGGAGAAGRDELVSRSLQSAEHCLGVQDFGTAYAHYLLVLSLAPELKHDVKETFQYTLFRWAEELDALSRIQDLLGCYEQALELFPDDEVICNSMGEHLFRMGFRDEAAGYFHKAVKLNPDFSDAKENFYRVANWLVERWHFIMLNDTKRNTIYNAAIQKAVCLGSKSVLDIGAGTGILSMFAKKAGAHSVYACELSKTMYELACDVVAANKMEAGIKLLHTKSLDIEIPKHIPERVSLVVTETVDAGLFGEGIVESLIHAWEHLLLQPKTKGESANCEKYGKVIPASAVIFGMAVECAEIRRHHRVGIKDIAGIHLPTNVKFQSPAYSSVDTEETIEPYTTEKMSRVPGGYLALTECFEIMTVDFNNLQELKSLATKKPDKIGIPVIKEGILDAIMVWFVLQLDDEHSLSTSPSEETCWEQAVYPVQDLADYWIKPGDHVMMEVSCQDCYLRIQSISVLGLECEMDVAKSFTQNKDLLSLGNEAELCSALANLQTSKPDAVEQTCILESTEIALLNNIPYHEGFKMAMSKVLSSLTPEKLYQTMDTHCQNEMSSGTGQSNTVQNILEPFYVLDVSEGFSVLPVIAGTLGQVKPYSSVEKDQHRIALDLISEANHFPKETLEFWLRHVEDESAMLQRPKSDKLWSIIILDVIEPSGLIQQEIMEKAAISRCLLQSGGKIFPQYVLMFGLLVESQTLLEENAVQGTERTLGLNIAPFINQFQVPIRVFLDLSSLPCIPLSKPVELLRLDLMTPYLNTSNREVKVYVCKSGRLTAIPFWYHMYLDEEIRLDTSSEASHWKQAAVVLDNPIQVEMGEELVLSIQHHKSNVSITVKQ
Experimental: To characterize the effect of compound 1j on PRMT9, we resolved to evaluate its direct binding to the target protein using surface plasmon resonance (SPR). To this aim, human recombinant PRMT9 (2–845; N-terminal FLAG-tag, C-terminal His6-tag) was covalently immobilized on a sensor chip surface using an amine coupling approach and compound 1j was injected over the active and reference cells at 10 different concentrations (2-fold dilution series) from 25 to 0.05 μM using the multicycle modality. Each injection was performed with an association and a dissociation time of 90 and 180 s, respectively, and with a flow rate of 30 μL/min. To reduce false positives from detergent-sensitive, nonspecific aggregation-based binding, detergents (0.05% Tween20) were added to the running buffer in all experiments. The corrected sensorgrams were fitted simultaneously by kinetic analysis using the 1:1 Langmuir model of the BIAevaluation software to obtain equilibrium dissociation constants (KD) and kinetic dissociation (koff) and association (kon) constants, and the curve-fitting efficiency was evaluated by chi-square (χ^2). The χ^2 value of 1j was calculated to be 0.650, indicating a good fit.
SPR experiments were performed on a Biacore T200 biosensor (Cytiva). […] The curve-fitting efficiency was evaluated by the chi-square (χ^2). […]

PRMT9 SPR residence time (τR = 1/koff) (human recombinant PRMT9) [s]	Kd (human recombinant PRMT9; KD = koff/kon) [nM]	Structure (SMILES)	IC50 (PRMT7) [nM]
		COC(=O)c1cc(O)c2cc(NC(=O)NCCCNC(=N)NC[C@H]3O[C@@H](n4cnc5c(N)ncnc54)[C@H](O)[C@@H]3O)ccc2c1 [1a]	315
500	188	COC(=O)c1cc(O)c2cc(NC(=O)NCCCNC(=N)NC[C@H]3O[C@@H](n4cnc5c(N)ncnc54)[C@H](O)[C@@H]3O)cc(C(F)(F)F)c2c1 [1j, Methyl 6-(3-(3-(3-(((2R,3S,4R,5R)-5-(6-Amino-9H-purin-9-yl)-3,4-dihydroxytetrahydrofuran-2-yl)methyl)guanidino)propyl)ureido)-4-hydroxy-8-(trifluoromethyl)-2-naphthoate]	
